Test results reported in publication PMC5865166, “MultiBacMam Bimolecular Fluorescence Complementation (BiFC) tool-kit identifies new small-molecule inhibitors of the CDK5-p25 protein-protein interaction (PPI)” (Scientific Reports, 2018).

Assays:
CDK5-p25 PPI = molecular target: T1, CDK5-p25 PPI (Homo sapiens, UniProt Q00535+Q15078, D144N); assay: MultiBacMam BiFC assay of CDK5-p25 PPI in transduced U2OS cells (VN-CDK5(D144N)/VC-p25); conditions: mammalian cell-based BiFC assay, versus published yeast-based data
T1 construct: The cleavage of p35 by the protease calpain generates p25; expressed in transfected cells; host or cells: U2OS cells transduced with MultiBacMam baculovirus
T1 sequence (Q00535 whole entry D144N): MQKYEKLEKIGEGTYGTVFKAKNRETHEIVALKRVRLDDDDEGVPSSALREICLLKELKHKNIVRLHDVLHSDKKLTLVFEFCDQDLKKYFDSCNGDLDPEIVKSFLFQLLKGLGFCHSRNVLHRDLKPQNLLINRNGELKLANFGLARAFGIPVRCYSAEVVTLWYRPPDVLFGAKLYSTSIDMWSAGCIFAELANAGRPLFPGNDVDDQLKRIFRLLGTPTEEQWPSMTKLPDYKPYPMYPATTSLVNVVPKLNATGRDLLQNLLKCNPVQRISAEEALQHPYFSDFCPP
T1 sequence (Q15078 99-307 limits assumed): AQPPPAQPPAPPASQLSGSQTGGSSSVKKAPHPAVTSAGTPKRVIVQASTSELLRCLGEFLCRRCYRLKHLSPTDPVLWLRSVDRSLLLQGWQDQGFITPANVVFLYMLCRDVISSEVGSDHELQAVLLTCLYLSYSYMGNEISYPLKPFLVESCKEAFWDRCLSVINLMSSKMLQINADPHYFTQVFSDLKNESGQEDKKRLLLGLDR
Method: (§1) Experiments were carried out in sterile, black clear-bottom 384 well plates (Cell carrier™ Perkin Elmer). U2OS cells were seed at density of cells 5 × 10^4 cells/well. After 3 hours, attached cells were transduced with 20 µl/well of viral stock dilution in PBS (Gibco) at multiplicity of infection (MOI) of 500 MOI. After were centrifuged during 30′ at 1500 rpm. Then plates were incubated at 37 °C during 5 hours. Thereafter the virus solution was replaced with 40 ul of complete growth medium containing 3 mM sodium butyrate (ABCR) with or without compound depending of the experiment. Cells were incubated for 16 hours at 37 °C with 5% of CO2. Finally plates were fixed with 4% paraformaldehyde (PFA) and stained with 5 µM Hoechst 33342 (Sigma-Aldrich). After 10 minutes of incubation at room temperature, plates were washed with PBS (GiBCO) and stored at 4 °C until imaging. For the immunostaining against p25 cells were permeabilized and stained with PBS, BSA 0.2% and Triton-X 100 0.5% and p35 (C-19) antibody from Santa Cruz Biotechnology (diluted 1:100 and incubated at 4 °C o/n). […]
(§2) Cells were transduced or transfected and fixed as described above. Cells were stored in PBS until automated fluorescence microscopy analysis with Opera. Fluorescence images were acquired using the Opera QEHS reader (Perkin-Elmer) using a 20x objective. […]

U2OS cells = assay: Total cell number / cytotoxicity in BiFC experiments; assay type: cell-based; conditions: prohibited increasing the compound concentration to above 13 µM
Method: Experiments were carried out in sterile, black clear-bottom 384 well plates (Cell carrier™ Perkin Elmer). U2OS cells were seed at density of cells 5 × 10^4 cells/well. After 3 hours, attached cells were transduced with 20 µl/well of viral stock dilution in PBS (Gibco) at multiplicity of infection (MOI) of 500 MOI. After were centrifuged during 30′ at 1500 rpm. Then plates were incubated at 37 °C during 5 hours. Thereafter the virus solution was replaced with 40 ul of complete growth medium containing 3 mM sodium butyrate (ABCR) with or without compound depending of the experiment. Cells were incubated for 16 hours at 37 °C with 5% of CO2. Finally plates were fixed with 4% paraformaldehyde (PFA) and stained with 5 µM Hoechst 33342 (Sigma-Aldrich). After 10 minutes of incubation at room temperature, plates were washed with PBS (GiBCO) and stored at 4 °C until imaging. For the immunostaining against p25 cells were permeabilized and stained with PBS, BSA 0.2% and Triton-X 100 0.5% and p35 (C-19) antibody from Santa Cruz Biotechnology (diluted 1:100 and incubated at 4 °C o/n). Then, the plates were incubated for 2 hrs at 37 °C with a donkey anti-rabbit conjugated with the alexa fluor 647 secondary antibody (Invitrogen). Finally plates were washed with PBS and stored at 4 °C until imaging.
Supplementary Figure S2. Total cell number in BiFC experiments. […]

MLKL-RIPK3 PPI = molecular target: T2, MLKL-RIPK3 PPI (Homo sapiens, UniProt Q8NB16+Q9Y572); assay: MLKL-RIPK3 BiFC counter assay in transduced U2OS cells (VN-MLKL/VC-RIPK3); assay type: cell-based; conditions: counter screen, 16h treatment; CPDs even at high concentration
T2 construct: expressed in transfected cells; host or cells: U2OS cells transduced with MultiBacMam baculovirus
T2 sequence (Q8NB16 whole entry): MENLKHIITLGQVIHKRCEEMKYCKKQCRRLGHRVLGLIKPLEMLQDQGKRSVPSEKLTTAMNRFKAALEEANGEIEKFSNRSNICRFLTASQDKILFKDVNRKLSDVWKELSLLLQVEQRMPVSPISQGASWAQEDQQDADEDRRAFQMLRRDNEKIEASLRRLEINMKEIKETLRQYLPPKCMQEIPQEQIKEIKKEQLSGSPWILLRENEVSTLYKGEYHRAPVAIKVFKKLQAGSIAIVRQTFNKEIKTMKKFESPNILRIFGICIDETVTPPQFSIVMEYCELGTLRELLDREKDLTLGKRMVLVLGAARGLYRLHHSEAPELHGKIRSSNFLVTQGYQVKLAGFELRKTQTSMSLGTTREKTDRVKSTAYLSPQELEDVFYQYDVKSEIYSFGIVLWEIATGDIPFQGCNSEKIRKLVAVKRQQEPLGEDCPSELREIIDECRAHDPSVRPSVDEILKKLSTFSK
T2 sequence (Q9Y572 whole entry): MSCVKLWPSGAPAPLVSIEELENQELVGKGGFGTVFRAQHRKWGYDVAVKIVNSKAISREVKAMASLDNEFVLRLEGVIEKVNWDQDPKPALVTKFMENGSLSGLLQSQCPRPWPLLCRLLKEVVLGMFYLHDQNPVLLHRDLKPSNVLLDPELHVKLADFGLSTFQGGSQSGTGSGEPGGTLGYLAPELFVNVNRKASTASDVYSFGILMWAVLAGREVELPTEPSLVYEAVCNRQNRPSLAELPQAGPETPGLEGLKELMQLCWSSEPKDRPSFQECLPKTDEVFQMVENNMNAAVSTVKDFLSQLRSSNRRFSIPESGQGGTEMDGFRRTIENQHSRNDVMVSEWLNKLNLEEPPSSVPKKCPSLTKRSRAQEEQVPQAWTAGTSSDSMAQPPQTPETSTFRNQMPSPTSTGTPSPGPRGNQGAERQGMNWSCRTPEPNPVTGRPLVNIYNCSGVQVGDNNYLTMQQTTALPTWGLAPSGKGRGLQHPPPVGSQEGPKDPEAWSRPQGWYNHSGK
Method: as §1, with “imaging.” for “imaging. For the immunostaining against p25 cells were permeabilized and stained with PBS, BSA 0.2% and Triton-X 100 0.5% and p35 (C-19) antibody from Santa Cruz Biotechnology (diluted 1:100 and incubated at 4 °C o/n).”
as §2
(§3) Supplementary Figure S3. […] Then cells were treated with indicated amounts of compounds for 16h and percentage of BiFC positive cells was determined by High Content image analysis.

Tau dimerization = assay: Tau BiFC counter assay in transduced U2OS cells (VN-TAU/VC-TAU); assay type: cell-based; conditions: counter screen, 16h treatment; CPDs even at high concentration
Method: as §1, with “imaging.” for “imaging. For the immunostaining against p25 cells were permeabilized and stained with PBS, BSA 0.2% and Triton-X 100 0.5% and p35 (C-19) antibody from Santa Cruz Biotechnology (diluted 1:100 and incubated at 4 °C o/n).”
as §2, §3

| SMILES | inhibitory effect on CDK5-p25 PPI (CDK5-p25 PPI) | toxic effect on the cells (U2OS cells) | effect on MLKL-RIPK3 PPI (MLKL-RIPK3 PPI) | effect on Tau dimerization (Tau dimerization) |
| --- | --- | --- | --- | --- |
| C[C@@]12CCC[C@H]1[C@@H]1CC[C@H]3C[C@H](N)CC[C@]3(C)[C@H]1CC2 [3α-amino-5α-androstane] | did not reproduce this published data | toxic effect | – | – |
| CC(C)CC(=O)Nc1[nH]nc2c1CN(C(=O)C1CCN(C)CC1)C2(C)C [pHA-793887] | – | – | non-specific fluorescence complementation inhibitor | non-specific fluorescence complementation inhibitor |
